Measurements: publication PMC5756575, “In Vitro Biotransformation, Safety, and Chemopreventive Action of Novel 8-Methoxy-Purine-2,6-Dione Derivatives” (Applied Biochemistry and Biotechnology, 2017)
Like-named read-outs stand apart in the source and are kept apart here.

Legend:
[1] = test system: Cunninghamella echinulata NRRL 1384; experiment: Cunninghamella biotransformation assay, C. echinulata; format: in vitro ADME; details: 7-day incubation; for % of compound/metabolite in C. echinulata: 0.5 mg/mL, LC-MS/MS; for % of tested (parental) compound metabolized at the end of experiment: C. echinulata
Experimental: Three different strains of Cunninghamella were used: Cunninghamella echinulata NRRL 1384, Cunninghamella blakesleeana 1908 DMS, and Cunninghamella elegans 1906 DMS. The first was provided by Dr. A.J. Carnell (University of Liverpool, UK), whereas the two remaining were purchased from Deutsche Sammlung von Mikroorganismen und Zellkulturen GmbH (DMSZ, Braunschweig, Germany).
Cunninghamella strains were cultivated on solid potato dextrose agar (PDA) plates at 28 °C. After 4 days, a liquid fermentation basal medium was prepared by the addition of 6 g of D-glucose, 1.5 g of NaCl, 1.5 g of yeast extract from Saccharomyces cerevisiae, and 1.5 g of K2HPO4 to 300 mL of distilled water. Aliquots of 24.5 mL of medium were inoculated with 300 μL of suspension of fungal spores obtained after wetting colonies in PDA. The fungi were incubated with shaking until the formation of spherical clumps.
Compounds 2–4 were evaluated in this experiment. Once microorganisms formed spherical clumps in the preliminary incubation, the corresponding tested compound was added to the broth and the mixture was incubated for 7 days. Two control experiments were also performed, in the absence of compound and fungus, respectively. Biotransformation progress was monitored by TLC and by liquid chromatography electrospray ionization-tandem mass spectrometry (LC-MS/MS). Monitoring was performed at four different incubation times: 30 min, 3 days, 5 days, and 7 days.
To analyze metabolites in LC-MS/MS, an aliquot of 500 μL of filtered sample was taken and extracted with 500 μL of dichloromethane. The organic fraction was dried with sodium sulfate, filtered, and evaporated. The obtained residue was analyzed in LC-MS/MS. At the end of experiment, all the remaining medium was extracted with 25 mL of dichloromethane after separating the fungal clumps by filtration over cellulose filters.
(§1) Agilent 1100 HPLC system (Agilent Technologies, Waldbronn, Germany) equipped with a Xbridge™ C18 analytical column (2.1 × 30 mm, […]; Waters, Dublin, Ireland) was used in the chromatographic separation of LC-MS/MS analysis. An elution gradient of acetonitrile and water, with 0.1% of formic acid, was used as a mobile phase. MS spectra were taken at Applied Biosystems MDS Sciex API 200 triple quadrupole mass analyzer (Concord, Ontario, Canada) with an electrospray ionization (ESI) interface between HPLC and MS.

rat liver microsomes = experiment: Microsomal stability assay; format: in vitro ADME; details: 97.88 versus 302.00 μL/min/mg
Experimental: Compounds 1 and 3 were studied in a biotransformation assay using rat liver microsomes following procedures described previously. The reagents used in this assay were levallorphan (internal standard) and NADPH-regenerating system, which contained phosphate buffer (pH 7.4), NADP^+, glucose-6-phosphate, and glucose-6-phosphate dehydrogenase. The final protein concentration in the assay was 0.4 mg/mL. Compounds 1 and 3 were tested at a final concentration of 20 μM.
The amount of a parental compound remaining in a solution after biotransformation was monitored using LC-MS/MS as described previously in “Cunninghamella Biotransformation Assay.” Graphs representing ln of percentage of parent compound remaining versus incubation time were drawn to calculate in vitro half-time (t1/2) from the slope of linear regression. To obtain intrinsic clearance (Clint) of a tested compound in rat liver microsomal assay, t1/2 previously calculated was substituted at the equation Clint = [(Vmic/Pmic) × 0.693/t1/2], being Vmic and Pmic the volume of incubation in microliters and the amount of incubated protein in milligrams, respectively.
as §1

[2] = test system: Salmonella typhimurium TA100; experiment: Ames mutagenicity test; format: cell-based
Experimental: From them, 0.2 mM working solutions were prepared by dilution with water. […]
In the Ames test, Salmonella typhimurium TA100 strain was used. This strain has a base-pair substitution that can be reverted by mutations at GC pairs. In addition, it contains mutations at uvrB-bio and rfa genes to eliminate excision repair mechanisms and to make the bacteria more permeable to chemicals, respectively. Finally, TA100 also includes pKM101 plasmid, which enhances both chemical and UV-induced mutagenesis via an increase in the error-prone recombinational DNA repair pathway. TA100 strain of S. typhimurium was provided by Dr. T. Nohmi (Division of Genetics and Mutagenesis, National Institute of Hygienic Sciences, Tokyo, Japan). V. harveyi and S. typhimurium bacterial cultures were maintained at 30 and 37 °C, respectively.
It causes point mutations at the genome as it induces G:C → A:T transitions in Vibrio harveyi strains and in other bacteria such as Escherichia coli and S. typhimurium. […]
S. typhimurium was cultivated in a fresh medium 12 h prior to a test. To perform mutagenicity assay, 100 μL of an overnight culture (containing approx. 1 × 10^8 to 2 × 10^8 bacteria) were inoculated along with 50 μL of a tested compound in 2 mL of top agar supplemented with traces of histidine and of biotin. Then the mixture was added over the surface of GM agar plates and was left incubating 48 h at 37 °C. Afterwards, the colonies were counted manually.

Vibrio harveyi BB7XM = format: cell-based; details: compound 40 ng/mL + NQNO 40 ng/mL; for Number of revertants per plate, Mean ± SD: antimutagenicity, NQNO line = NQNO as a single compound
Description: Four Vibrio harveyi strains were used in this study: a wild-type BB7 (naturally found in the Baltic Sea) and three genetically modified strains, namely BB7M (obtained by the introduction of pAB1273 plasmid containing the genes mucA and mucB to enhance the error-prone DNA repair), BB7X (hypersensitive to UV radiation after genetic modification with Tn5TpMCS), and BB7XM (containing the two abovementioned modifications). These strains were kindly provided by Prof. G. Węgrzyn (Department of Molecular Biology, University of Gdańsk, Poland).
It causes point mutations at the genome as it induces G:C → A:T transitions in Vibrio harveyi strains and in other bacteria such as Escherichia coli and S. typhimurium. […] Next, its working solution was prepared in sterile water, being 40 ng/mL its final concentration.
Procedure followed in the V. harveyi antimutagenicity assay was similar to the mutagenicity method described before. […] The results were expressed as the inhibition percentage of mutagenic effect, which was calculated with the formula: 100 − [(R 1/R 2) × 100], where R 1 is the number of revertants per plate in the presence of both mutagen and tested substance, and R 2 is the number of revertants per plate in the presence of mutagen. […] S. typhimurium antimutagenicity assay was based on similar assumptions as the V. harveyi antimutagenicity test. In this case, the chemopreventive activity was determined at two concentrations of a tested compounds and a standard mutagen, i.e., 40 and 500 ng/mL.

mice [3] = test system: mice; parameters: method as in PMID 25443727, PMID 25560569; details: writhing syndrome test in mice; cited from earlier work
mice [4] = test system: mice; parameters: method as in PMID 25443727, PMID 25560569; details: formalin test in mice; cited from earlier work
[5] = TA100, 40 ng/mL, mutagenic if MI >2.0
[6] = TA100, 500 ng/mL (NQNO control stated as 40 ng/mL in method)

Question: With COc1nc2c(c(=O)n(C)c(=O)n2C)n1CCCC(=O)NCc1ccccc1 [Compound 3, N-benzyl-4-(8-methoxy-1,3-dimethyl-2,6-dioxo-purin-7-yl)butanamide] as the compound, how does the “% of compound/metabolite in C. echinulata” value [1] read?
Answer: The value was 92.4%.

Question: What about the “% of tested (parental) compound metabolized at the end of experiment” value [1] of the same compound?
Answer: The value was 7.6%.

Question: What about the “Clint, fold lower than imipramine” value (rat liver microsomes) of the same compound?
Answer: Its value is 3.09 fold.

Question: And the “Number of revertants per plate, Mean ± SD” value ([2]; TA100, 40 ng/mL)?
Answer: Its value is 53 ± 11.

Question: And the “MI (mutagenicity index)” value [2, 5]?
Answer: The value was 1.5.

Question: What about the “MI (mutagenicity index)” value [2, 6] of the same compound?
Answer: The value was 0.2.

Question: What about the “Number of revertants per plate, Mean ± SD” value [2, 6] of the same compound?
Answer: Its value is 6 ± 3.

Question: And the “Number of revertants per plate, Mean ± SD” value (Vibrio harveyi BB7XM)?
Answer: The value was 65 ± 7.

Question: And the “% inhibition of NQNO mutagenicity” value (Vibrio harveyi BB7XM)?
Answer: The value was 15%.

Question: With COc1nc2c(c(=O)n(C)c(=O)n2C)n1CCCC(=O)N1CCN(c2ccccc2)CC1 [Compound 4, 8-methoxy-1,3-dimethyl-7-[4-oxo-4-(4-phenylpiperazin-1-yl)butyl]purine-2,6-dione] as the compound, how does the “% of compound/metabolite in C. echinulata” value [1] read?
Answer: Its value is 12.4%.

Question: And the “% of tested (parental) compound metabolized at the end of experiment” value [1]?
Answer: The value was 87.6%.

Question: What about the “Number of revertants per plate, Mean ± SD” value ([2]; TA100, 40 ng/mL) of the same compound?
Answer: The value was 48 ± 7.

Question: And the “MI (mutagenicity index)” value [2, 5]?
Answer: The value was 1.3.

Question: What about the “MI (mutagenicity index)” value [2, 6] of the same compound?
Answer: Its value is 0.4.

Question: What about the “Number of revertants per plate, Mean ± SD” value [2, 6] of the same compound?
Answer: The value was 10 ± 1.

Question: What about the “Number of revertants per plate, Mean ± SD” value (Vibrio harveyi BB7XM) of the same compound?
Answer: Its value is 70 ± 7.

Question: What about the “% inhibition of NQNO mutagenicity” value (Vibrio harveyi BB7XM) of the same compound?
Answer: The value was 9%.

Question: What about the “fold higher activity than acetylsalicylic acid” value (mice [3]) of the same compound?
Answer: Its value is 23 fold.

Question: What about the “fold higher activity than acetylsalicylic acid” value (mice [4]) of the same compound?
Answer: Its value is 36 fold.
